Reference: patent US8871772B2, “Therapeutic methods and compounds” (Ampio Pharmaceuticals, Inc., priority 2008, dated 2014)

Tested on: MMP-9
Test: Secretion of MMP-9 by BT001 glioma cells, gelatin zymogram
Assay type: cell-based
Conditions: 48 hours
Protocol: Assays were performed to determine the effect of Cpd. 5 (synthesis described in Example 1) on the secretion of MMP-9 by the BT001 glioma cell line. The BT001 cell line was established as follows from cells obtained after surgery. The excised tissue was treated briefly with a protease cocktail, and the resulting cell suspension was cultured in IMDM supplemented with 10% FBS. Expanded cells were then frozen for future use.
A fresh 50 mM stock solution of Cpd. 5 was prepared in ethanol and warmed to 37° C. Aliquots of the stock solution were removed and diluted in IMDM supplemented with 0.1% FBS, insulin-transferrin-sodium selenite (ITSS) solution, and penicillin/streptomycin solution to prepare experimental culture media (final concentrations of Cpd. 5 ranged from 10-100 μM). Ethanol in the culture medium was used as diluent control.
The BT001 cells were cultured in 25 cm^2 flasks in IMDM containing 10% FBS at 37° C. and 5% CO2. When cells reach 70-80% confluence, they were washed two times with IMDM that had been warmed to 37° C. in a water bath. The experimental culture media containing Cpd. 5 were then added to the flasks (4.5 ml per flask), and the flasks were incubated at 37° C. and 5% CO2 for 48 hours. The conditioned media were then removed from the cells, and cellular debris was removed by centrifugation at 2000 rpm for 10 minutes. The supernatants were then transferred to sterile tubes and stored at −20° C.
Gelatin zymograms were used to evaluate MMP release and activity in the samples. Precast 10% polyacrylamide gels impregnated with gelatin were obtained from Invitrogen, Carlsbad, Calif. Ten μL, of each of the thawed conditioned media were mixed with an equal volume of SDS-PAGE loading dye without reducing agent (obtained from Invitrogen, Carlsbad, Calif.), applied to the gels and separated at 150 volts for 1 hour. The gels were then processed following the manufacturer's recommended protocol (includes renaturing the gels for one hour and incubating overnight at 37° C. with gentle shaking for protease digestion of gelatin). Visualization of MMP activity was done by staining the gel with Invitrogen Simple Safe blue commassie solution and photographing the gel on a Kodak Image station. The intensity of the bands in the photos was determined using bundled Kodak software. Percent decrease was determined with the following formula: (Intensity of diluent control)−(Intensity of treatment)/(Intensity of diluent control)×100. The data presented in Table 4 are the means of three or four replicate experiments.

Compound: COC(=O)C(c1ccc(-c2ccccc2)cc1)C1NC(=O)CNC1=O (stereo not drawn) [Cpd. 5, biphenyl-4-yl-(3,6-dioxo-piperazin-2-yl)-acetic acid methyl ester]
- MEAN % DECREASE ACTIVE MMP-9 (BT001, 10 μM): 49.55 ± 21.49%
- MEAN % DECREASE PRO-MMP-9 (BT001, 10 μM): 6.89 ± 20.51%
- MEAN % DECREASE ACTIVE MMP-9 (BT001, 50 μM): 40.51 ± 9.73%
- MEAN % DECREASE PRO-MMP-9 (BT001, 50 μM): 36.13 ± 20.53%
- MEAN % DECREASE ACTIVE MMP-9 (BT001, 100 μM): 71.08 ± 17.47%
- MEAN % DECREASE PRO-MMP-9 (BT001, 100 μM): 45.55 ± 20.50%
